Source: US20250019385A1, “SPIROCYCLIC ANNULATED 2-AMINO-3-CYANO THIOPHENES AND DERIVATIVES FOR THE TREATMENT OF CANCER” (Boehringer Ingelheim International GmbH, priority 2023, published 2025)
Converted amounts (≈) assume the structure as drawn. Read-outs that look alike come from different tables or passages of the source.

What was measured:
NCI-H727 cells = assay: NCI-H727 CTG proliferation assay (120 h) (lung cancer, G12V); assay type: cell-based; details: Homo sapiens
Outline: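 Cells seeded at 500/well in RPMI + 10% FCS, left overnight, then dosed with a log dilution series in technical duplicate; untreated T0 plate read at compound addition. After 120 h at 37 °C, CellTiter-Glo luminescence read; viability as % of DMSO control, IC50 from four-parameter non-linear regression.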

[1] = target: KRAS (G12C)::SOS1 protein-protein interaction (Homo sapiens (Human), UniProt P01116, C118S/C51S/C80L/G12C); assay: KRAS::SOS1 AlphaScreen binding assay (KRAS G12C); details: GDP
Outline: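 Biotinylated KRAS G12C 1-169 (C51S/C80L/C118S, 7.5 nM) and GST-SOS1 564-1049 (5 nM) with 10 μM GDP in PBS, 0.1% BSA, 0.05% Tween 20 were incubated 30 min with compounds (top 100 μM, eleven fivefold dilutions). AlphaScreen beads were then added for 60 min at room temperature in the dark. IC50 came from a 4-parameter logistic fit.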

NCI-H358 cells = assay: NCI-H358 CTG proliferation assay (120 h) (NSCLC, G12C); assay type: cell-based; details: Homo sapiens
Outline: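 Cells seeded at 200 per well in RPMI-1640 with 10% FCS, left overnight, then treated with a logarithmic dose series in duplicate for 120 h. Viability measured by CellTiter-Glo luminescence as percent of DMSO controls; IC50 from four-parameter non-linear regression.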

[2] = target: KRAS (G12D)::SOS1 protein-protein interaction (Homo sapiens (Human), UniProt P01116, G12D); assay: KRAS::SOS1 AlphaScreen binding assay (KRAS G12D); details: GDP
Outline: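 AlphaScreen assay with KRAS G12D (1-169, 6His/avi-tagged, 10 nM), GST-SOS1 564-1049 (5 nM) and GDP (10 μM) in PBS, 0.1% BSA, 0.05% Tween 20; compound up to 100 μM top concentration, eleven fivefold dilutions in duplicate. After 30 min, glutathione acceptor and streptavidin donor beads (10 μg/mL each) were added and signal read after a further 60 min at room temperature in the dark; IC50 from 4-parameter logistic fit.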

[3] = Solubility measurement (DMSO solution precipitation method); assay type: physicochemical; details: aqueous buffer, kinetic from dmso stock
Outline: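 A 10 mM DMSO stock was diluted to 250 μM final in McIlvaine buffer at pH 4.5 or 6.8, then shaken 24 h at ambient temperature. After filtering off precipitate, filtrate concentration was quantified by LC-UV against a fully dissolved reference in acetonitrile/water (1:1).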

[4] = McIlvaine buffer pH 4.5, 24 h, read-out: solubility pH 4.5
[5] = McIlvaine buffer pH 6.8, 24 h, read-out: solubility pH 6.8

Chain of KRAS (G12C)::SOS1 protein-protein interaction (P01116 other isoform, or with tags, fused parts or gaps G12C/C51S/C80L/C118S): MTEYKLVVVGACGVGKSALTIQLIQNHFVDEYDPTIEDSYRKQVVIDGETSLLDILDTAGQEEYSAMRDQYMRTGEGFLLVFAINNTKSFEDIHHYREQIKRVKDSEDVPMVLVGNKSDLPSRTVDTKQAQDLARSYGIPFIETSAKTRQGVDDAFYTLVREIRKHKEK
Chain of KRAS (G12D)::SOS1 protein-protein interaction (P01116 other isoform, or with tags, fused parts or gaps G12D): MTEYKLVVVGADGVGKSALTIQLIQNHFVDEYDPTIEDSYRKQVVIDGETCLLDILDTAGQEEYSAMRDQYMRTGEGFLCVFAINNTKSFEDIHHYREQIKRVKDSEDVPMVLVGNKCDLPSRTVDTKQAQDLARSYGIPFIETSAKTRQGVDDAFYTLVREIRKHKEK

Row | IC50 (NCI-H727 cells) [nM] | IC50 [1] [nM] | IC50 (NCI-H358 cells) [nM] | IC50 [2] [nM] | solubility at 24 h [3, 4] [µg/mL] | solubility at 24 h [3, 5] [µg/mL] | Compound
1 | 4 | 2 | 32 | 2 | > 155 | 63 (≈ 95.6 µM) | CC(C)n1c(=O)n([C@@H]2CCOC2)c2nc(-c3onc4c3CCC[C@@]43CCCc4sc(N)c(C#N)c43)nc(O[C@@H](C)[C@@H]3CCCN3C)c21 [I-32]
2 | 899 | 22 | 921 | 126 | > 163 | 8 (≈ 11.6 µM) | CCn1c(=O)n([C@@H]2CCCOC2)c2nc(-c3onc4c3CCC[C@@]43CCCc4sc(N)c(C#N)c43)nc(OC[C@@]34CCCN3C[C@H](F)C4)c21 [I-33]
3 | 282 | 6 | 475 | 22 | > 158 | > 148 | CCn1c(=O)n([C@@H]2CCCOC2)c2nc(-c3onc4c3CCC[C@@]43CCCc4sc(N)c(C#N)c43)nc(OCC34CCCN3CCC4)c21 [I-34]
4 | 21 | 2 | 38 | 2 | 135 (≈ 197 µM) | 94 (≈ 137 µM) | CCn1c(=O)n([C@@H]2CCCOC2)c2nc(-c3onc4c3CCC[C@@]43CCCc4sc(N)c(C#N)c43)nc(O[C@@H](C)C34CCCN3CCC4)c21 [I-36]
5 | 181 | 7 | 232 | 8 | > 151 | 113 (≈ 175 µM) | C[C@H](Oc1nc(-c2onc3c2CCC[C@@]32CCCc3sc(N)c(C#N)c32)nc2c1N(C)C(=O)CN2[C@@H]1CCOC1)[C@@H]1CCCN1C [I-37]
6 | 34 | 2 | 9 | 2 | > 144 | > 139 | C[C@H](Oc1nc(-c2onc3c2CCC[C@@]32CCCc3sc(N)c(C#N)c32)nc2c1ncn2[C@@H]1CCOC1)[C@@H]1CCCN1C [I-38]
7 | 28 | 2 | 19 | 1 | > 147 | > 137 | Cc1nc2c(O[C@@H](C)[C@@H]3CCCN3C)nc(-c3onc4c3CCC[C@@]43CCCc4sc(N)c(C#N)c43)nc2n1[C@@H]1CCOC1 [I-39]
8 | 17 | 2 | 17 | 2 | > 124 | 44 (≈ 71.7 µM) | Cc1cc2c(O[C@@H](C)[C@@H]3CCCN3C)nc(-c3onc4c3CCC[C@@]43CCCc4sc(N)c(C#N)c43)nc2n1[C@@H]1CCOC1 [I-40]
9 | 107 | 4 | 294 | 3 | > 137 | 32 (≈ 52.1 µM) | Cc1cn([C@@H]2CCOC2)c2nc(-c3onc4c3CCC[C@@]43CCCc4sc(N)c(C#N)c43)nc(O[C@@H](C)[C@@H]3CCCN3C)c12 [I-41]
10 | 39 | 2 | 21 | 3 | > 145 | 112 (≈ 182 µM) | Cc1nn([C@@H]2CCOC2)c2nc(-c3onc4c3CCC[C@@]43CCCc4sc(N)c(C#N)c43)nc(O[C@@H](C)[C@@H]3CCCN3C)c12 [I-42]
11 | 36 | 2 | 71 | 2 | > 147 | 113 (≈ 188 µM) | C[C@H](Oc1nc(-c2onc3c2CCC[C@@]32CCCc3sc(N)c(C#N)c32)nc2c1cnn2[C@@H]1CCOC1)[C@@H]1CCCN1C [I-43]
12 | 2 | 2 | 7 | 1 | > 157 | 2 (≈ 3.04 µM) | C[C@@H]1COC[C@H](n2c(=O)n(C)c3c(O[C@@H](C)[C@@H]4CCCN4C)nc(-c4onc5c4CCC[C@@]54CCCc5sc(N)c(C#N)c54)nc32)C1 [I-44]
13 | 2 | 2 | 3 | 1 | > 145 | > 142 | C[C@H](Oc1nc(-c2onc3c2CCC[C@@]32CCCc3sc(N)c(C#N)c32)nc2c1COC[C@]21CCOC1)[C@@H]1CCCN1C [I-54]
14 | 2 | 1 | 4 | 1 | > 161 | 37 (≈ 56 µM) | CO[C@H]1CCN(C)[C@@H]1[C@H](C)Oc1nc(-c2noc3c2CCC[C@@]32CCCc3sc(N)c(C#N)c32)nc2c1n(C)c(=O)n2[C@@H]1CCOC1 [II-1]
15 | 3 | 1 | 4 | 1 | > 154 | > 153 | C[C@H](Oc1nc(-c2noc3c2CCC[C@@]32CCCc3sc(N)c(C#N)c32)nc2c1n(C)c(=O)n2[C@@H]1CCOC1)[C@@H]1CCCN1C [II-2]
16 | 5 | 2 | 8 | 2 | > 151 | 11 (≈ 16.3 µM) | CO[C@H]1CCN(C)[C@@H]1[C@H](C)Oc1nc(-c2noc3c2CCC[C@@]32CCCc3sc(N)c(C#N)c32)nc2c1n(C)c(=O)n2[C@@H]1CCCOC1 [II-3]
17 | 12 | 2 | 35 | 1 | > 139 | 104 (≈ 173 µM) | C[C@H](Oc1nc(-c2noc3c2CCC[C@@]32CCCc3sc(N)c(C#N)c32)nc2c1cnn2[C@@H]1CCOC1)[C@@H]1CCCN1C [II-4]
18 | 1 | 1 | 1 | 1 | > 142 | > 143 | C[C@H](Oc1nc(-c2noc3c2CCC[C@@]32CCCc3sc(N)c(C#N)c32)nc2c1COC[C@]21CCOC1)[C@@H]1CCCN1C [II-8]
19 | 22 | 2 | 74 | 2 | > 141 | > 138 | C[C@H](Oc1nc(-c2noc3c2CCC[C@@]32CCCc3sc(N)c(C#N)c32)nc2c1COC[C@@]21CCOC1)[C@@H]1CCCN1C [II-9a]
20 | 4 | 1 | 5 | 1 | > 141 | > 137 | C[C@H](Oc1nc(-c2noc3c2CCC[C@@]32CCCc3sc(N)c(C#N)c32)nc2c1CCO[C@]21CCOC1)[C@@H]1CCCN1C [II-9b]
21 | 1 | 2 | 3 | 1 | > 144 | 45 (≈ 71.1 µM) | CO[C@@H]1C[C@@H]([C@H](C)Oc2nc(-c3noc4c3CCC[C@@]43CCCc4sc(N)c(C#N)c43)nc3c2COC[C@]32CCOC2)N(C)C1 [II-11]
22 | 3 | 2 | 1 | 1 | > 147 | > 148 | C[C@H](Oc1nc(-c2noc3c2CCC[C@@]32CCCc3sc(N)c(C#N)c32)nc2c1CNC[C@]21CCOC1)[C@@H]1CCCN1C [II-15]
